Results as given in ChEMBL document CHEMBL5352465, “Small molecules containing chalcogen elements (S, Se, Te) as new warhead to fight neglected tropical diseases” (Eur J Med Chem, 2023).
Blank lines part the entries; values can stand above or below the compound they belong to.

Assays:
[1] = system: Trypanosoma cruzi; test: Antitrypanosomal activity against bloodstream Trypanosoma cruzi Y strain trypomastigotes assessed as parasite growth inhibition incubated for 24 hrs by light microscopic analysis; type: functional, organism-based
[2] = Selectivity index, ratio of CC50 for rat L6 cells to IC50 for antitrypanosomal activity against bloodstream Trypanosoma brucei; type: toxicity; conditions: read-out: Ratio CC50/IC50
[3] = Selectivity index, ratio of CC50 for rat L6 cells to IC50 for antitrypanosomal activity against bloodstream Trypanosoma brucei gambiense; type: toxicity; conditions: read-out: Ratio CC50/IC50
[4] = system: Trypanosoma brucei gambiense; test: Antitrypanosomal activity against bloodstream Trypanosoma brucei gambiense assessed as parasite growth inhibition measured after 72 hrs by resazurin staining based analysis; type: functional, organism-based
[5] = system: Trypanosoma brucei; test: Antitrypanosomal activity against bloodstream Trypanosoma brucei assessed as parasite growth inhibition measured after 72 hrs by resazurin staining based analysis; type: functional, organism-based
[6] = system: Leishmania infantum; test: Antileishmanial activity against Leishmania infantum promastigotes assessed as reduction in cell viability; type: functional, organism-based
[7] = system: Leishmania panamensis; test: Antileishmanial activity against Leishmania panamensis MHOM/CO/87/UA140-EpiR-GFP strain amastigotes assessed as inhibition of parasite growth incubated for 72 hrs by flow cytometric analysis; type: functional, organism-based
[8] = Selectivity index, ratio of LC50 for human U-937 cells to ratio of IC50 for antileishmanial activity against Leishmania panamensis MHOM/CO/87/UA140-EpiR-GFP strain promastigotes; type: toxicity; conditions: read-out: Ratio LC50/IC50
[9] = system: Leishmania infantum; test: Antileishmanial activity against Leishmania infantum amastigotes assessed as inhibition of parasite growth; type: functional, organism-based
[10] = system: Leishmania infantum; test: Antileishmanial activity against Leishmania infantum promastigotes assessed as inhibition of parasite growth; type: functional, organism-based
[11] = Selectivity index, ratio of CC50 for human WI26VA4 cells to ratio of IC50 for antileishmanial activity against Leishmania infantum MHOM/BR/74/PP75 promastigote; type: toxicity; conditions: read-out: Ratio CC50/IC50
[12] = system: Leishmania infantum; test: Antileishmanial activity against Leishmania infantum MHOM/BR/74/PP75 strain promastigotes assessed as reduction in cell viability incubated for 48 hrs by MTT assay; type: functional, organism-based; conditions: MHOM/BR/74/PP75, 48 h
[13] = Selectivity index, ratio of CC50 for human WI26VA4 cells to ratio of IC50 for antileishmanial activity against Leishmania braziliensis MHOM/BR/75/M2903 promastigote; type: toxicity; conditions: read-out: Ratio CC50/IC50
[14] = system: Leishmania braziliensis; test: Antileishmanial activity against Leishmania braziliensis MHOM/BR/75/M2903 strain promastigotes assessed as reduction in cell viability incubated for 48 hrs by MTT assay; type: functional, organism-based; conditions: MHOM/BR/75/M2903, 48 h
[15] = system: Trypanosoma cruzi; test: Antitrypanosomal activity against Trypanosoma cruzi amastigote assessed as parasite growth inhibition; type: functional, organism-based
[16] = Selectivity index, ratio of CC50 for cytotoxicity against mouse RAW264.7 cells to IC50 for antitrypanosomal activity against Trypanosoma cruzi epimastigote; type: toxicity, cell-based; conditions: read-out: Ratio CC50/IC50
[17] = Selectivity index, ratio of CC50 for cytotoxicity against mouse RAW264.7 cells to IC50 for antitrypanosomal activity against Trypanosoma cruzi amastigote; type: toxicity, cell-based; conditions: read-out: Ratio CC50/IC50
[18] = system: Trypanosoma cruzi; test: Antitrypanosomal activity against Trypanosoma cruzi epimastigote Dm28c strain assessed as parasite growth inhibition; type: functional, organism-based
[19] = system: Trypanosoma cruzi; test: Antitrypanosomal activity against Trypanosoma cruzi Tulahuen strain trypomastigotes assessed as parasite growth inhibition incubated for 18 hrs by light microscopic analysis; type: functional
[20] = system: Leishmania braziliensis; test: Antileishmanial activity against Leishmania braziliensis promastigotes assessed as inhibition of parasite growth; type: functional, organism-based
[21] = system: Leishmania amazonensis; test: Antileishmanial activity against Leishmania amazonensis promastigotes assessed as inhibition of parasite growth; type: functional, organism-based
[22] = system: Leishmania major; test: Antileishmanial activity against Leishmania major promastigote assessed as inhibition of parasite growth; type: functional, organism-based
[23] = system: Leishmania aethiopica; test: Antileishmanial activity against Leishmania aethiopica amastigotes assessed as inhibition of parasite growth measured after 24 hrs by Alamar blue based analysis; type: functional, organism-based
[24] = system: Leishmania donovani; test: Antileishmanial activity against Leishmania donovani promastigotes assessed as inhibition of parasite growth measured after 24 hrs by Alamar blue based analysis; type: functional, organism-based
[25] = Selectivity index, ratio of CC50 for cytotoxicity against Swiss mouse peritoneal macrophages to IC50 for antitrypanosomal activity against bloodstream Trypanosoma cruzi Y strain trypomastigotes; type: toxicity; conditions: read-out: Ratio CC50/IC50
[26] = system: Trypanosoma cruzi; test: Antitrypanosomal activity against bloodstream Trypanosoma cruzi Y strain trypomastigotes assessed as parasite growth inhibition incubated for 24 hrs by Neubauer chamber based light microscopic analysis; type: functional, organism-based
[27] = Selectivity index, ratio of CC50 for […] to ratio of IC50 for antileishmanial activity against Leishmania infantum promastigote; type: toxicity, cell-based; conditions: read-out: Ratio CC50/IC50
[28] = system: Trypanosoma cruzi; test: Antitrypanosomal activity against bloodstream Trypanosoma cruzi NINOA strain trypomastigotes assessed as parasite growth inhibition incubated for 24 hrs by microscopic analysis; type: functional
[29] = Selectivity index, ratio of CC50 for mouse J774.A1 cells to ratio of IC50 for antitrypanosomal activity against bloodstream Trypanosoma cruzi NINOA strain trypomastigotes; type: toxicity; conditions: read-out: Ratio CC50/IC50
[30] = Selectivity index, ratio of CC50 for mouse J774.A1 cells to ratio of IC50 for antitrypanosomal activity against bloodstream Trypanosoma cruzi INC-5 strain trypomastigotes; type: toxicity; conditions: read-out: Ratio CC50/IC50
[31] = system: Trypanosoma cruzi; test: Antitrypanosomal activity against bloodstream Trypanosoma cruzi INC-5 strain trypomastigotes assessed as parasite growth inhibition incubated for 24 hrs by microscopic analysis; type: functional
[32] = system: Trypanosoma cruzi; test: Antitrypanosomal activity against Trypanosoma cruzi epimastigote Dm28c strain assessed as parasite growth inhibition incubated for 96 hrs by Neubauer chamber based light microscopic analysis; type: functional, organism-based

IC50 [1]: 57 µM
SMILES: CC1(C)OC2=C(CC1[Se]c1cccc3ccccc13)C(=O)C(=O)c1ccccc12 (centres undefined)

IC50 [4]: 0.2 µM | IC50 [5]: 0.679 µM
SMILES: CCOC(=O)C(Cc1ccccc1)N1C(=O)S/C(=C/Nc2cc(S(=O)(=O)N3CCOCC3)ccc2C)C1=S (centres undefined)
selectivity ratio [2]: > 255 | selectivity ratio [3]: > 870

SMILES: C/C(=N\Nc1nc(-c2ccc(F)cc2)cs1)c1ccccn1
IC50 [6]: 0.42 µM

SMILES: ClCCN(CCCl)c1nc(Cl)c(C2CC(c3ccc(Br)cc3)=NN2c2ccccc2)s1 (centres undefined)
IC50 [7]: 10.9 µM | selectivity ratio [8]: 1.6

SMILES: O=C(CSc1nc(-c2ccccc2)cc2cc(-c3ccccc3)nn12)N/N=C/c1ccccc1
IC50 [9]: 5.85 µM | IC50 [10]: 4.92 µM

SMILES: O=C1NC(=O)/C(=C/c2ccc(Cl)c(Cl)c2)S1
selectivity ratio [11]: 1.85 | IC50 [12]: 23.4 µM | selectivity ratio [13]: 0.66 | IC50 [14]: 65.7 µM

IC50 [15]: 2.83 µM | IC50 [18]: 3.54 µM
SMILES: NS(=O)(=O)c1ccc(NC(=O)Cc2ccc(Cl)cc2)c(F)c1
selectivity ratio [16]: 2 | selectivity ratio [17]: 3

IC90 [19]: 7.78 µM | IC50 [1]: 3.07 µM
SMILES: CC(c1cccc2ccccc12)n1cc(CCOc2ccc(-c3ccc(-c4nc5ccc(C(=N)N)cc5[nH]4)s3)cc2)nn1 (centres undefined)

SMILES: OCCSc1ccnc2cc(Cl)ccc12
IC50 [20]: > 100 µM | IC50 [21]: > 100 µM

SMILES: NCCSc1ccnc2cc(Cl)ccc12
IC50 [20]: 39.9 µM | IC50 [21]: 52.9 µM

SMILES: [Se]=C=NCCCCc1ccccc1 [PHENYLBUTYL ISOSELENOCYANATE]
IC50 [22]: 7.2 µM | IC50 [21]: 4.5 µM

IC50 [15]: 3.51 µM | IC50 [18]: 7.36 µM
SMILES: NS(=O)(=O)c1ccc(CCNC(=O)Cc2ccc(Br)cc2)cc1
selectivity ratio [16]: 0.44 | selectivity ratio [17]: 0.44

SMILES: O=C1NC(=O)/C(=C/c2ccccc2Cl)S1
selectivity ratio [11]: 0.89 | IC50 [12]: 68.8 µM | selectivity ratio [13]: 0.86 | IC50 [14]: 71 µM

SMILES: CC(=O)N1N=C(c2cccs2)CC1c1cc(-c2ccc(C)cc2)nn1-c1ccccc1 (centres undefined)
IC50 [23]: 2.24 µM | IC50 [24]: 0.16 µM

IC50 [15]: 3.27 µM | IC50 [18]: 6.69 µM
SMILES: COc1ccc(CC(=O)Nc2nnc(S(N)(=O)=O)s2)cc1
selectivity ratio [16]: 1 | selectivity ratio [17]: 1

SMILES: O=C1NC(=O)/C(=C/c2cc(Cl)cc(Cl)c2Cl)S1
selectivity ratio [11]: 0.96 | IC50 [12]: 30.4 µM | selectivity ratio [13]: 0.63 | IC50 [14]: 46.4 µM

IC50 [26]: 9.5 µM
SMILES: C(=N\Nc1nnc(-c2ccccn2)s1)/c1ccccn1
selectivity ratio [25]: 7.7

SMILES: CCC(C)Oc1cc(N)nc(Sc2cccc(Cl)c2)n1 (centres undefined)
IC50 [9]: > 0.25 µM | IC50 [10]: 29.4 µM

IC90 [19]: 5.78 µM | IC50 [1]: 2.14 µM
SMILES: N=C(N)c1ccc2nc(-c3ccc(-c4ccc(OCCc5cn(Cc6cccc7ccccc67)nn5)cc4)s3)[nH]c2c1

SMILES: O=C1c2ccccc2C(=O)N1Nc1nc(-c2ccc3ccccc3c2)cs1
selectivity ratio [27]: 12.5

SMILES: Cc1sc(N/N=C/c2ccccn2)nc1-c1ccc(Cl)c(Cl)c1
IC50 [6]: 5.52 µM

SMILES: Brc1ccc(-c2csc(N/N=C/c3ccccn3)n2)cc1
IC50 [6]: 3.12 µM

IC50 [15]: 2.27 µM | IC50 [18]: 5.66 µM
SMILES: NS(=O)(=O)c1ccc(NC(=O)Cc2ccccc2Br)c(F)c1
selectivity ratio [16]: 1 | selectivity ratio [17]: 3

SMILES: Fc1c(F)c(F)c(CSc2nc3ccccc3s2)c(F)c1F
LC50 [28]: 147 µM | selectivity ratio [29]: 1.69 | selectivity ratio [30]: 1.34 | LC50 [31]: 185 µM

SMILES: O=C1C(=O)c2ccccc2C2=C1CC(C[Se]c1ccc(Cl)cc1)O2 (centres undefined)
IC50 [1]: 58.3 µM

SMILES: CC1=CC[C@@H](C(C)(C)NC(=S)NN)CC1
IC50 [21]: 3 µM

SMILES: O=C1c2ccccc2C(=O)N1Nc1nc(-c2ccc(Cl)cc2Cl)cs1
selectivity ratio [27]: 6.4

IC50 [15]: 2.15 µM | IC50 [18]: 3.98 µM
SMILES: NS(=O)(=O)c1nnc(NC(=O)Cc2ccccc2Br)s1
selectivity ratio [16]: 2 | selectivity ratio [17]: 5

IC50 [32]: 6.6 µM
SMILES: C/C(=N\NC(N)=S)c1cc(Cl)ccc1Cl
